Here are results for 3 compounds from PMC5056380, “Characterization of WY 14,643 and its Complex with Aldose Reductase” (Scientific Reports, 2016).

The target in experiment [1] is T1, human Aldose reductase (hAR) (Homo sapiens, UniProt P15121).
T1 construct: hexa-His (cleaved yes); made in house; host or cells: E. coli BL21
In words: Fluorescence titration (quenching) of cofactor binding to hAR. Particulars: for Kd: 0.5 μM protein. As to the method: (§1) The fluorescence intensities of hAR decreased gradually when the concentrations of quenchers (i.e. inhibitor and cofactors) were increased. The observed fluorescence data were used for calculating the fluorescence quenching (Q% = (F^0 − F)/F^0) where F is the measured fluorescence and F^0 is the fluorescence in the absence of quenchers.
(§2) Fluorescence titration was performed for the binding of NADPH to hAR at a protein concentration of 0.5 μM in 5 mM sodium phosphate buffer (pH 7.0) containing 100 μM DTT. The titration for NADP^+ binding to hAR was conducted at a protein concentration of 0.5 μM in 10 mM Tris-HCl buffer (pH 9.0) containing 100 μM DTT in 1.4 ml quartz cuvette by measuring fluorescence by SpectraMax M2 (Molecular Device, CA). The concentration of protein•NADP^+/NADPH complexes formed were measured by extensive quenching of protein fluorescence by varying the concentrations of NADP^+/NADPH at excitation and emission wavelengths of 295 and 365 nm, respectively following the procedure described by[43][44]. This method was extended for inhibitor (WY 14,643) binding to enzyme•NADPH complex at protein concentration of 0.5 μM in 5 mM sodium phosphate buffer (pH 7.0) containing 100 μM DTT by keeping saturated fixed 60 μM concentration of NADPH and by varying the concentrations of WY 14,643. The binding of inhibitor (WY 14,643) to enzyme•NADP^+ complex was measured at 0.5 μM protein concentration in 10 mM Tris-HCl buffer (pH 9.0) containing 100 μM DTT by keeping saturated fixed 60 μM concentration of NADP^+ and varying the WY 14,643. The concentrations of enzyme•NADP^+/NADPH•inhibitor complex formed were measured by quenching of fluorescence protein•NADP^+/NADPH complexes with excitation and emission wavelengths 295 and 365 nm, respectively.
The methodology described by van de Weert 2010 was followed in the binding constant determination. The fractional saturation (α) of protein by cofactors (NADP^+/NADPH) and by inhibitor (WY 14,643) binding to protein can be expressed in the form of fluorescence as follows;
The binding dissociation constants and stoichiometry for the binding of quenchers (cofactors and inhibitor) to protein were calculated by non-linear fitting to the experimental fluorescence data and results are shown in Table 1.

For experiment [2], the target named is T1, human Aldose reductase (hAR). Further details: method as in PMID 17194029. To be noted: cited from earlier work.
The next experiment deals with T2, hAR•NADP^+ (Homo sapiens, UniProt P15121).
T2 construct: hexa-His (cleaved yes); made in house; host or cells: E. coli BL21
In words: Fluorescence titration of inhibitor binding to the hAR•NADP^+ binary complex. Particulars: 60 μM NADP^+, 10 mM Tris-HCl pH 9.0. As to the method: as §1
as §2, with “This method was extended for inhibitor (WY 14,643) binding to enzyme•NADPH complex at protein concentration of 0.5 μM in 5 mM sodium phosphate buffer (pH 7.0) containing 100 μM DTT by keeping saturated fixed 60 μM concentration of NADPH and by varying the concentrations of WY 14,643.” left out, “The concentrations of enzyme•NADP^+/NADPH•inhibitor complex formed were measured by quenching of fluorescence protein•NADP^+/NADPH complexes with excitation and emission wavelengths 295 and 365 nm, respectively.” left out

For the next experiment, the target named is T3, hAR•NADPH (Homo sapiens, UniProt P15121).
T3 construct: hexa-His (cleaved yes); made in house; host or cells: E. coli BL21
In words: Fluorescence titration of inhibitor binding to the hAR•NADPH binary complex. Particulars: 60 μM NADPH, 5 mM sodium phosphate pH 7.0. As to the method:
as §1
as §2, with “This method was extended for inhibitor (WY 14,643) binding to enzyme•NADPH complex at protein concentration of 0.5 μM in 5 mM sodium phosphate buffer (pH 7.0) containing 100 μM DTT by keeping saturated fixed 60 μM concentration of NADPH and by varying the concentrations of WY 14,643.” left out, “The concentrations of enzyme•NADP^+/NADPH•inhibitor complex formed were measured by quenching of fluorescence protein•NADP^+/NADPH complexes with excitation and emission wavelengths 295 and 365 nm, respectively.” left out

For a further experiment, the system named is rat livers. Set-up: method as in PMID 195342. To be noted: cited from earlier work.

SMILES strings stand for the structures. Where two headings read alike, the source gives them in different places.

`NC(=O)C1=CN([C@@H]2O[C@H](COP(=O)(O)OP(=O)(O)OC[C@H]3O[C@@H](n4cnc5c(N)ncnc54)[C@H](OP(=O)(O)O)[C@@H]3O)[C@@H](O)[C@H]2O)C=CC1` [NADPH]: in experiment [1] (NADPH binding to apo hAR, 5 mM sodium phosphate pH 7.0, 100 μM DTT, read-out: Kd(E-NADPH), equilibrium dissociation constant), the Kd worked out at 480 ± 40 nM. In addition, in experiment [1] (NADPH binding to apo hAR, 5 mM sodium phosphate pH 7.0), the “stoichiometry coefficient (n), E-NADPH” value is listed as 1.25 ± 0.1.

With `NC(=O)c1ccc[n+]([C@@H]2O[C@H](COP(=O)([O-])OP(=O)(O)OC[C@H]3O[C@@H](n4cnc5c(N)ncnc54)[C@H](OP(=O)(O)O)[C@@H]3O)[C@@H](O)[C@H]2O)c1` [NADP^+], the Kd in experiment [1] (NADP^+ binding to apo hAR, 10 mM Tris-HCl pH 9.0, 100 μM DTT, read-out: Kd(E-NADP^+), equilibrium dissociation constant) amounted to 210 ± 10 nM. The “stoichiometry coefficient (n), E-NADP^+” value in experiment [1] (NADP^+ binding to apo hAR, 10 mM Tris-HCl pH 9.0) is listed as 1.05 ± 0.03. Further, the “fold higher affinity of NADP^+ than NADPH for hAR” value in experiment [1] (fluorescence quenching data, oxidized vs reduced cofactor) was found to be 2 fold.

On to `Cc1cccc(Nc2cc(Cl)nc(SCC(=O)O)n2)c1C` [WY 14,643, [4-Chloro-6-(2,3-xylidino)-2-pyrimidinylthio]acetic Acid], for which, in experiment [2] (forward reaction (reduction of DL-glyceraldehyde)), the “Kii (intercept inhibition constant)” value is 1.8 µM. Besides, the Ki in experiment [2] (forward reaction (reduction of DL-glyceraldehyde), read-out: Kis (the slope inhibition constant)) was 1800 nM. In addition, the mode of inhibition entry in experiment [2] (oxidation of benzyl alcohol) was “pure non-competitive”. The pattern of inhibition entry in experiment [2] (with respect to the reduction of DL-glyceraldehyde) is “classical non-competitive”. Moreover, the results for the equilibrium dissociation constant (Kd) on hAR•NADP^+ (0.5 μM protein) and at hAR•NADPH (0.5 μM protein) were 104 nM and 110 nM, respectively. The “stoichiometry coefficient (n), binding with hAR•NADP^+ complex” value on hAR•NADP^+ was determined as 1.37 ± 0.05. In addition, the “stoichiometry coefficient (n), binding with hAR•NADPH complex” value at hAR•NADPH came out at 1.25 ± 0.06. Moreover, the “increased capacity in oxidization of palmitoyl-coenzyme A” value with rat livers is on record as 18 fold.
